In the supplement of paper PMC4862054:

Columns and labels:
Test in all cases: normalised viability (% of control), CellTiter-Blue; higher = more viable cells (about 100 = DMSO control)
Details in all cases: incubation time: 72 h
DU-4475 [1] = system: DU-4475
Protocol: (§1)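 DSRT, CellTiter-Blue viability, 72 h incubation. Signal is normalised to DMSO and benzethonium chloride controls. Value is the normalised response at dose 8.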

CAL-85-1 [2] = system: CAL-85-1
Protocol: as §1

CAL-51 [3] = system: CAL-51
Protocol: as §1

HDQ-P1 [4] = system: HDQ-P1
Protocol: as §1

MDA-MB-453 [5] = system: MDA-MB-453
Protocol: as §1

CAL-148 [6] = system: CAL-148
Protocol: as §1

DU-4475 [7] = system: DU-4475; remark: listed apart in the source
Protocol: (§2)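 DSRT, CellTiter-Blue viability, 72 h incubation. Signal is normalised to DMSO and benzethonium chloride controls. Value is the normalised response at dose 6.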

CAL-85-1 [8] = system: CAL-85-1; remark: listed apart in the source
Protocol: as §2

CAL-51 [9] = system: CAL-51; remark: listed apart in the source
Protocol: as §2

HDQ-P1 [10] = system: HDQ-P1; remark: listed apart in the source
Protocol: as §2

MDA-MB-453 [11] = system: MDA-MB-453; remark: listed apart in the source
Protocol: as §2

CAL-148 [12] = system: CAL-148; remark: listed apart in the source
Protocol: as §2

Row | SMILES | normalised viability (DU-4475 [1]) [%] | normalised viability (CAL-85-1 [2]) [%] | normalised viability (CAL-51 [3]) [%] | normalised viability (HDQ-P1 [4]) [%] | normalised viability (MDA-MB-453 [5]) [%] | normalised viability (CAL-148 [6]) [%] | normalised viability (DU-4475 [7]) [%] | normalised viability (CAL-85-1 [8]) [%] | normalised viability (CAL-51 [9]) [%] | normalised viability (HDQ-P1 [10]) [%] | normalised viability (MDA-MB-453 [11]) [%] | normalised viability (CAL-148 [12]) [%]
1 | COc1cccc2cc(-c3nc([C@H]4CC[C@H](C(=O)O)CC4)n4ncnc(N)c34)[nH]c12 [OSI-027] (3000 nM) | 69.1 | 32.9 | 42.9 | 31.1 | 19.9 | 46.4 | – | – | – | – | – | –
2 | OC[C@H]1O[C@@H](n2cnc3c2N=CNC[C@H]3O)C[C@@H]1O [Pentostatin] (300 nM) | – | – | – | – | – | – | 93.1 | 97.8 | 94.3 | 82.3 | 108 | 111
3 | OC[C@H]1O[C@@H](n2cnc3c2N=CNC[C@H]3O)C[C@@H]1O [Pentostatin] (3000 nM) | 90.9 | 96.4 | 95.8 | 96.8 | 96.8 | 112 | – | – | – | – | – | –
4 | N#CC[C@H](C1CCCC1)n1cc(-c2ncnc3[nH]ccc23)cn1 [Ruxolitinib] (300 nM) | – | – | – | – | – | – | 114 | 92 | 86.7 | 73.3 | 78.4 | 95.1
5 | N#CC[C@H](C1CCCC1)n1cc(-c2ncnc3[nH]ccc23)cn1 [Ruxolitinib] (3000 nM) | 114 | 114 | 105 | 105 | 94 | 87.7 | – | – | – | – | – | –
6 | C=CC[C@@H]1/C=C(\C)C[C@H](C)C[C@H](OC)[C@H]2O[C@@](O)(C(=O)C(=O)N3CCCC[C@H]3C(=O)O[C@H](/C(C)=C/[C@@H]3CC[C@@H](O)[C@H](OC)C3)[C@H](C)[C@@H](O)CC1=O)[C@H](C)C[C@@H]2OC [Tacrolimus] (300 nM) | – | – | – | – | – | – | 99.6 | 101 | 103 | 119 | 111 | 106
7 | C=CC[C@@H]1/C=C(\C)C[C@H](C)C[C@H](OC)[C@H]2O[C@@](O)(C(=O)C(=O)N3CCCC[C@H]3C(=O)O[C@H](/C(C)=C/[C@@H]3CC[C@@H](O)[C@H](OC)C3)[C@H](C)[C@@H](O)CC1=O)[C@H](C)C[C@@H]2OC [Tacrolimus] (3000 nM) | 121 | 100 | 99.2 | 116 | 102 | 99.2 | – | – | – | – | – | –
8 | C=CCNC1=C2C[C@@H](C)C[C@H](OC)[C@H](O)[C@@H](C)/C=C(\C)[C@H](OC(N)=O)[C@@H](OC)/C=C\C=C(/C)C(=O)NC(=CC1=O)C2=O [Tanespimycin] (300 nM) | – | – | – | – | – | – | 1.35 | 47.2 | 48.2 | 28.8 | 8.64 | 19.7
9 | C=CCNC1=C2C[C@@H](C)C[C@H](OC)[C@H](O)[C@@H](C)/C=C(\C)[C@H](OC(N)=O)[C@@H](OC)/C=C\C=C(/C)C(=O)NC(=CC1=O)C2=O [Tanespimycin] (3000 nM) | 0.57 | 23 | 11.3 | 24.7 | 8.29 | 17.2 | – | – | – | – | – | –
10 | CO[C@H]1C[C@@H]2CC[C@@H](C)[C@@](O)(O2)C(=O)C(=O)N2CCCC[C@H]2C(=O)O[C@H]([C@H](C)C[C@@H]2CC[C@@H](OC(=O)C(C)(CO)CO)[C@H](OC)C2)CC(=O)[C@H](C)/C=C(\C)[C@@H](O)[C@@H](OC)C(=O)[C@H](C)C[C@H](C)/C=C/C=C/C=C/1C [Temsirolimus] (30 nM) | – | – | – | – | – | – | 54.4 | 56.3 | 41.8 | 58.3 | 30.1 | 40.4
11 | CO[C@H]1C[C@@H]2CC[C@@H](C)[C@@](O)(O2)C(=O)C(=O)N2CCCC[C@H]2C(=O)O[C@H]([C@H](C)C[C@@H]2CC[C@@H](OC(=O)C(C)(CO)CO)[C@H](OC)C2)CC(=O)[C@H](C)/C=C(\C)[C@@H](O)[C@@H](OC)C(=O)[C@H](C)C[C@H](C)/C=C/C=C/C=C/1C [Temsirolimus] (300 nM) | 50.3 | 57.4 | 37.2 | 69.1 | 26.2 | 33.7 | – | – | – | – | – | –
12 | C[C@]1(c2nc3c(C(N)=O)cccc3[nH]2)CCCN1 [Veliparib] (300 nM) | – | – | – | – | – | – | 89.9 | 85.2 | 105 | 65.5 | 101 | 100
13 | C[C@]1(c2nc3c(C(N)=O)cccc3[nH]2)CCCN1 [Veliparib] (3000 nM) | 86.2 | 92.2 | 108 | 82.9 | 109 | 91.8 | – | – | – | – | – | –
14 | CC[C@]1(O)C[C@@H]2CN(CCc3c([nH]c4ccccc34)[C@@](C(=O)OC)(c3cc4c(cc3OC)N(C)[C@H]3[C@@](O)(C(=O)OC)[C@H](OC(C)=O)[C@]5(CC)C=CCN6CC[C@]43[C@@H]65)C2)C1 [Vinblastine] (30 nM) | – | – | – | – | – | – | 67.4 | 36.2 | 49.7 | 31.5 | 29.1 | 17.2
15 | CC[C@]1(O)C[C@@H]2CN(CCc3c([nH]c4ccccc34)[C@@](C(=O)OC)(c3cc4c(cc3OC)N(C)[C@H]3[C@@](O)(C(=O)OC)[C@H](OC(C)=O)[C@]5(CC)C=CCN6CC[C@]43[C@@H]65)C2)C1 [Vinblastine] (300 nM) | 20.9 | 30.8 | 16.9 | 33.5 | 24.4 | 17.7 | – | – | – | – | – | –
16 | CS(=O)(=O)c1ccc(C(=O)Nc2ccc(Cl)c(-c3ccccn3)c2)c(Cl)c1 [Vismodegib] (300 nM) | – | – | – | – | – | – | 102 | 95.7 | 106 | 44 | 102 | 81.3
17 | CS(=O)(=O)c1ccc(C(=O)Nc2ccc(Cl)c(-c3ccccn3)c2)c(Cl)c1 [Vismodegib] (3000 nM) | 112 | 96.4 | 108 | 103 | 95 | 83.3 | – | – | – | – | – | –
